Assay results as given in patent US20140121236A1, “Compositions and Methods for Treating Myotonic Dystrophy Type 1” (UNIVERSITY OF SOUTHERN CALIFORNIA, priority 2012, published 2014).

Columns and labels:
[1] = tested on: DM1 myoblasts; assay: Viability of DM1 myoblasts by counting surviving cells; type: cell-based, human; conditions: 4 days, surviving cells vs vehicle control
[2] = tested on: CUG-RNA foci in DM1 myoblasts; assay: FISH analysis of nuclear CUG-RNA foci in DM1 myoblasts; type: cell-based, human; conditions: 4 days, FISH
Description: DM1 myoblasts were then treated with 10 μM of either RCN-001 or the vehicle (DMSO) for 4 days and then examined by FISH using a Cy3 (CAG)10 probe.
Normal myoblasts were purchased from Lonza, Inc. DM1 myoblasts were a gift from Dr. Charles Thornton. Normal and DM1 myoblasts were maintained in SkGM Medium (Lonza, Inc.) containing 10% Fetal Bovine Serum and 1% Penicillin-Streptomycin, 5% CO2 at 37° C. Human Embryonic Kidney 293 Cells (293HEK) were maintained in Dulbecco's Modification of Eagle's Medium (DMEM) from Cellgro supplemented with 10% Fetal Bovine Serum and 1% Penicillin-Streptomycin, 5% CO2 at 37° C.
CUG-RNA foci were detected by performing FISH on untreated DM1 myoblasts and DM1 myoblasts following treatment. For FISH analysis, DM1 myoblasts were plated on a 24-well clear bottom polystyrene plate with circular glass coverslips followed by treatment. Prior to FISH analysis, cells were fixed using 4% paraformaldehyde in 1×PBS for 20 min at room temperature. FISH analysis was performed using a Cy3 conjugated (CAG)10 oligonucleotide probe (Integrated DNA Technologies, Inc.) as described by Taneja et al, 1995 and Dansithong et al, 2005. CUG-RNA foci were observed as a red signal using fluorescence microscopy. Immunofluorescence was performed as described by Dansithong et al, 2008. Endogenous SHARP was detected using SHARP polyclonal antibodies from Bethyl at a dilution of 1:1000. The secondary antibodies conjugated with FITC (Invitrogen) were used at a 1:2000 dilution. Chloride channel 1 (Clcn1 a.k.a. CIC-1) was detected using CIC-1 polyclonal antibodies from Santa Cruz. The secondary antibodies conjugated with Alexa Flour 488 (Invitrogen) were used at a 1:2000 dilution. FISH analysis in mouse muscle section was carried out as described in Mancodi et al, 2000 (9).

[3] = tested on: DM1 myoblasts; assay: Toxicity by shape and size of the nuclei of DM1 myoblasts; type: cell-based, human; set-up: key: −: Nontoxic; +: 10% alterations in nuclei shape and size; ++: 20-30% alterations in nuclei shape and size; +++: 40-50% alterations in nuclei shape and size; ++++: 60% alterations in nuclei shape and size; +++++: very sick, almost no surviving cells; conditions: 4 days
[4] = tested on: MBNL1 and MBNL2 RNA splicing in DM1 myoblasts; assay: Splicing assay (RT-PCR) for RNAs from DM1 myoblasts; type: cell-based, human; conditions: 50 μM, 17 hours, RT-PCR
Description: A. Total RNA was isolated from normal (SKMC) myoblasts, untreated DM1 myoblasts and DM1 myoblasts treated with 50 μM RCN-001 or 50 μM Pentamidine for 17 hours and subjected to RT-PCR analysis using the indicated primers sets for MBNL1 and MBNL2 RNAs. GAPDH RNA was amplified in parallel as an internal control. The results of one of three experiments are shown. B. The relative levels of exon inclusion was measured by densitometry and tabulated as mean % exon inclusion +/− standard deviation.
Treatment of DM1 myoblasts with RCN-001 is also sufficient to rescue abnormal RNA splicing. Two RNAs were selected that show abnormal splicing in DM1 myoblasts: MBNL1 and MBNL2. DM1 myoblast were treated with 50 μM RCN-001 for 17 hours after which RNA was isolated and splice variants were analyzed as previously described (20-22).
Splicing assays for RNAs isolated from human myoblasts. DM1 patient myoblasts was treated with 50 μM of RCN-001 or Pentamidine for 17 h as described by Warf et al, 2009. Total RNA was isolated using the RNAeasy mini kit (Qiagen Inc., USA) following manufacture's protocol. cDNA was synthesized using 5 μg of total RNA using First-Strand cDNA synthesis kit (GE Healthcare). PCR amplification was carried out using 150 ng of cDNA for 35 cycles for each target RNA. The primers used for PCR amplification are as follows—
The relative band intensities were measured using densitometry analyses and the percent of exon inclusion was calculated as [exon inclusion/(exon inclusion+exon exclusion)]×100.

[5] = tested on: DM1 splicing defects; conditions: literature reference 16 (Warf et al.); cited from earlier work

CCCCCCc1cc2cc(-c3nnc(-c4cccc(F)c4)o3)c(=O)oc2cc1O [RCN-004, 3-(5-(3-fluorophenyl)-1,3,4-oxadiazol-2-yl)-6-hexyl-7-hydroxy-2H-chromen-2-one]
Toxicity: Viable ([1]; Table 1, 10 μM): ++ (30-40% cell survival) | # of Foci (percentage) 0-1: Percentage of cells with no or 1 nuclear foci ([2]; Table 1, 10 μM): 29 percentage | # of Foci (percentage) >2: Percentage of cells with 2 or greater nuclear foci ([2]; Table 1, 10 μM): 71 percentage | Toxicity: Toxic ([3]; Table 1, 10 μM): +++ (40-50% alterations in nuclei shape and size)

CCCCCCc1cc2cc(C(N)=O)/c(=N/c3ccccc3OC)oc2cc1O [RCN-019, (Z)-6-hexyl-7-hydroxy-2-((2-methoxyphenyl)imino)-2H-chromene-3-carboxamide]
Toxicity: Viable ([1]; Table 2, 10 μM): +++ (50-60% cell survival) | # of Foci (percentage) 0-1: Percentage of cells with no or 1 nuclear foci ([2]; Table 2, 10 μM): 14 percentage | # of Foci (percentage) >2: Percentage of cells with 2 or greater nuclear foci ([2]; Table 2, 10 μM): 86 percentage | Toxicity: Toxic ([3]; Table 2, 10 μM): ++ (20-30% alterations in nuclei shape and size)

CCCCCCc1cc2cc(-c3csc(-c4nc(-c5cc6cc(CCCCCC)c(O)cc6oc5=O)cs4)n3)c(=O)oc2cc1O [RCN-012]
Toxicity: Viable ([1]; Table 4, 10 μM): +++++ (90-100% cell survival) | # of Foci (percentage) 0-1: Percentage of cells with no or 1 nuclear foci ([2]; Table 4, 10 μM): 14 percentage | # of Foci (percentage) >2: Percentage of cells with 2 or greater nuclear foci ([2]; Table 4, 10 μM): 86 percentage | Toxicity: Toxic ([3]; Table 4, 10 μM): −

CCN(CC)c1ccc2cc(-c3nnc(-c4cc5ccccc5cc4O)o3)c(=O)oc2c1 [RCN-009, 7-(diethylamino)-3-(5-(3-hydroxynaphthalen-2-yl)-1,3,4-oxadiazol-2-yl)-2H-chromen-2-one]
Toxicity: Viable ([1]; Table 3, 10 μM): ++ (30-40% cell survival) | # of Foci (percentage) 0-1: Percentage of cells with no or 1 nuclear foci ([2]; Table 3, 10 μM): 11 percentage | # of Foci (percentage) >2: Percentage of cells with 2 or greater nuclear foci ([2]; Table 3, 10 μM): 89 percentage | Toxicity: Toxic ([3]; Table 3, 10 μM): +++ (40-50% alterations in nuclei shape and size)

CCc1cc2c(CN3CCN(S(=O)(=O)Cc4ccccc4)CC3)cc(=O)oc2cc1O [RCN-020, 4-((4-(benzylsulfonyl)piperazin-1-yl)methyl)-6-ethyl-7-hydroxy-2H-chromen-2-one]
Toxicity: Viable ([1]; Table 3, 10 μM): +++++ (90-100% cell survival) | Toxicity: Viable ([1]; Table 4, 10 μM): +++++ (90-100% cell survival) | # of Foci (percentage) 0-1: Percentage of cells with no or 1 nuclear foci ([2]; Table 3, 10 μM): 15 percentage | # of Foci (percentage) >2: Percentage of cells with 2 or greater nuclear foci ([2]; Table 3, 10 μM): 85 percentage | # of Foci (percentage) 0-1: Percentage of cells with no or 1 nuclear foci ([2]; Table 4, 10 μM): 15 percentage | # of Foci (percentage) >2: Percentage of cells with 2 or greater nuclear foci ([2]; Table 4, 10 μM): 85 percentage | Toxicity: Toxic ([3]; Table 3, 10 μM): − | Toxicity: Toxic ([3]; Table 4, 10 μM): −

CCCCCCc1cc2cc(-c3cn4ccc(C)cc4n3)c(=O)oc2cc1O [RCN-013, 6-hexyl-7-hydroxy-3-(7-methylimidazo[1,2-a]pyridine-2-yl)-2H-chromen-2-one]
Toxicity: Viable ([1]; Table 4, 10 μM): +++ (50-60% cell survival) | # of Foci (percentage) 0-1: Percentage of cells with no or 1 nuclear foci ([2]; Table 4, 10 μM): 13 percentage | # of Foci (percentage) >2: Percentage of cells with 2 or greater nuclear foci ([2]; Table 4, 10 μM): 87 percentage | Toxicity: Toxic ([3]; Table 4, 10 μM): +++ (40-50% alterations in nuclei shape and size)

N=C(N)c1ccc(OCCCCCOc2ccc(C(=N)N)cc2)cc1 [pentamidine, reference compound]
rescue of abnormal splicing of MBNL1 and MBNL2 [4]: did not perform as well RCN-001 | rescue of DM1 splicing defects shown by others [5]: partially rescue DM1 splicing defects

CCN(CC)c1ccc2cc(-c3nnc(-c4ccc(Cl)cc4)o3)c(=O)oc2c1 [RCN-007, 3-(5-(4-chlorophenyl)-1,3,4-oxadiazol-2-yl)-7-(diethylamino)-2H-chromen-2-one]
Toxicity: Viable ([1]; Table 1, 10 μM): +++ (50-60% cell survival) | # of Foci (percentage) 0-1: Percentage of cells with no or 1 nuclear foci ([2]; Table 1, 10 μM): 17 percentage | # of Foci (percentage) >2: Percentage of cells with 2 or greater nuclear foci ([2]; Table 1, 10 μM): 83 percentage | Toxicity: Toxic ([3]; Table 1, 10 μM): +++ (40-50% alterations in nuclei shape and size)

CCCCCCc1cc2cc(C(=O)Nc3ccc(Cl)c(Cl)c3)c(=O)oc2cc1O [RCN-017, N-(3,4-dichlorophenyl)-6-hexyl-7-hydroxy-2-oxo-2H-chromene-3-carboxamide]
Toxicity: Viable ([1]; Table 2, 10 μM): − (less than 10% cell survival) | Toxicity: Toxic ([3]; Table 2, 10 μM): +++++

O=c1oc2ccccc2cc1-c1nnc(-c2cccc(Br)c2)o1 [RCN-008, 3-(5-(3-bromophenyl)-1,3,4-oxadiazol-2-yl)-2H-chromen-2-one]
Toxicity: Viable ([1]; Table 3, 10 μM): +++ (50-60% cell survival) | # of Foci (percentage) 0-1: Percentage of cells with no or 1 nuclear foci ([2]; Table 3, 10 μM): 27 percentage | # of Foci (percentage) >2: Percentage of cells with 2 or greater nuclear foci ([2]; Table 3, 10 μM): 23 percentage | Toxicity: Toxic ([3]; Table 3, 10 μM): +++ (40-50% alterations in nuclei shape and size)

CCCCCCc1cc2cc(-c3cn4ccccc4n3)c(=O)oc2cc1O [RCN-011, 6-hexyl-7-hydroxy-3-(imidazo[1,2-a]pyridine-2-yl)-2H-chromen-2-one]
Toxicity: Viable ([1]; Table 4, 10 μM): +++++ (90-100% cell survival) | # of Foci (percentage) 0-1: Percentage of cells with no or 1 nuclear foci ([2]; Table 4, 10 μM): 17 percentage | # of Foci (percentage) >2: Percentage of cells with 2 or greater nuclear foci ([2]; Table 4, 10 μM): 83 percentage | Toxicity: Toxic ([3]; Table 4, 10 μM): −

CCCCCCc1cc2cc(C(=O)Nc3ccc(Br)cc3)c(=O)oc2cc1O [RCN-015, N-(4-bromophenyl)-6-hexyl-7-hydroxy-2-oxo-2H-chromene-3-carboxamide]
Toxicity: Viable ([1]; Table 2, 10 μM): +++ (50-60% cell survival) | # of Foci (percentage) 0-1: Percentage of cells with no or 1 nuclear foci ([2]; Table 2, 10 μM): 29 percentage | # of Foci (percentage) >2: Percentage of cells with 2 or greater nuclear foci ([2]; Table 2, 10 μM): 71 percentage | Toxicity: Toxic ([3]; Table 2, 10 μM): +++ (40-50% alterations in nuclei shape and size)

CCCCCCc1cc2cc(-c3nnc(-c4ccc([N+](=O)[O-])cc4)o3)c(=O)oc2cc1O [RCN--005]
Toxicity: Viable ([1]; Table 1, 10 μM): + (10-20% cell survival) | # of Foci (percentage) 0-1: Percentage of cells with no or 1 nuclear foci ([2]; Table 1, 10 μM): 14 percentage | # of Foci (percentage) >2: Percentage of cells with 2 or greater nuclear foci ([2]; Table 1, 10 μM): 86 percentage | Toxicity: Toxic ([3]; Table 1, 10 μM): ++++ (60% alterations in nuclei shape and size)

CCCCCCc1cc2cc(C(=O)Nc3cccc(Cl)c3Cl)c(=N)oc2cc1O [RCN-016, N-(2,3-dichlorophenyl)-6-hexyl-7-hydroxy-2-imino-2H-chromene-3-carboxamide]
Toxicity: Viable ([1]; Table 2, 10 μM): +++ (50-60% cell survival) | # of Foci (percentage) 0-1: Percentage of cells with no or 1 nuclear foci ([2]; Table 2, 10 μM): 12 percentage | # of Foci (percentage) >2: Percentage of cells with 2 or greater nuclear foci ([2]; Table 2, 10 μM): 88 percentage | Toxicity: Toxic ([3]; Table 2, 10 μM): ++ (20-30% alterations in nuclei shape and size)

CCCCCCc1cc2cc(C(=O)Nc3cccc(OC)c3)c(=O)oc2cc1O [RCN-014, 6-hexyl-7-hydroxy-N-(3-methoxyphenyl)-2-oxo-2H-chromene-3-carboxamide]
Toxicity: Viable ([1]; Table 1, 10 μM): ++++ (70-80% cell survival) | Toxicity: Viable ([1]; Table 2, 10 μM): ++++ (70-80% cell survival) | # of Foci (percentage) 0-1: Percentage of cells with no or 1 nuclear foci ([2]; Table 1, 10 μM): 24 percentage | # of Foci (percentage) >2: Percentage of cells with 2 or greater nuclear foci ([2]; Table 1, 10 μM): 76 percentage | # of Foci (percentage) 0-1: Percentage of cells with no or 1 nuclear foci ([2]; Table 2, 10 μM): 24 percentage | # of Foci (percentage) >2: Percentage of cells with 2 or greater nuclear foci ([2]; Table 2, 10 μM): 76 percentage | Toxicity: Toxic ([3]; Table 1, 10 μM): + (10% alterations in nuclei shape and size) | Toxicity: Toxic ([3]; Table 2, 10 μM): + (10% alterations in nuclei shape and size)

CCCCCCc1cc2cc(C(=O)Nc3cccc(Br)c3)c(=O)oc2cc1O [RCN-018, N-(3-bromophenyl)-6-hexyl-7-hydroxy-2-oxo-2H-chromene-3-carboxamide]
Toxicity: Viable ([1]; Table 2, 10 μM): − (less than 10% cell survival) | Toxicity: Toxic ([3]; Table 2, 10 μM): +++++
